Reference: ChEMBL document CHEMBL1140251, “Rhodanine derivatives as inhibitors of JSP-1” (Bioorg Med Chem Lett, 2005)

Key:
[1] = target: Dual specificity protein phosphatase 3 (Homo sapiens, UniProt P51452); assay: In vitro inhibitory concentration against VH1-related (VHR) phosphatase
[2] = target: T1, Dual specificity protein phosphatase 22 (Homo sapiens, UniProt Q9NRW4); assay: Inhibition of JNK-stimulating phosphatase-1 (JSP-1)
T1 sequence (Q9NRW4 whole entry): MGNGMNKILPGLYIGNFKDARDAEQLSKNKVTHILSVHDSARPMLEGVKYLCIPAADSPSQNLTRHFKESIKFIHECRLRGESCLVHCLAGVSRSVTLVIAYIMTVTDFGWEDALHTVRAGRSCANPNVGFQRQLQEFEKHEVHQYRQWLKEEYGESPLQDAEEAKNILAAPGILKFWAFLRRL

Sequence of Dual specificity protein phosphatase 3 (P51452 whole entry): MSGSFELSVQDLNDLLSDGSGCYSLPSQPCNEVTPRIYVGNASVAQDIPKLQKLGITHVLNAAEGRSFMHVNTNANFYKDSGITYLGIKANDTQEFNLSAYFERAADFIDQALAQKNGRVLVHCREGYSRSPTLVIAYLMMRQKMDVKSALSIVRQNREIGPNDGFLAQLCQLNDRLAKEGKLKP

Compound	IC50 [1] [µM]	IC50 [2] [µM]
O=C1/C(=C/c2ccccc2)SC(=S)N1c1ccc(CP(=O)(O)O)cc1	> 200	10
O=C(O)Cc1cccc(N2C(=O)/C(=C/c3ccccc3)SC2=S)c1	> 200	20
O=C1/C(=C/c2ccccc2)SC(=S)N1c1ccc(S(=O)(=O)O)cc1	> 200	11
Cc1cc(C(=O)O)ccc1N1C(=O)/C(=C/c2ccccc2)SC1=S	> 200	66
O=C(O)c1ccc(N2C(=O)/C(=C/c3ccc(F)cc3)OC2=S)cc1	–	> 200
COc1ccc(/C=C2\SC(=S)N(c3cccc(C(=O)O)c3)C2=O)cc1	> 200	26
O=C(O)c1ccc(N2C(=O)/C(=C/c3ccc(F)cc3)NC2=S)cc1	–	> 200
O=C(O)c1ccc(N2C(=O)S/C(=C\c3ccc(F)cc3)C2=O)cc1	–	> 200
O=C(O)c1ccccc1N1C(=O)/C(=C/c2ccccc2)SC1=S	> 200	> 200
Cc1ccc(/C=C2\SC(=S)N(c3cccc(C(=O)O)c3)C2=O)cc1	123	16
O=C(O)c1cc(C(=O)O)cc(N2C(=O)/C(=C/c3ccccc3)SC2=S)c1	> 200	103
O=C(O)c1ccc(N2C(=O)/C(=C/c3ccccc3)SC2=S)cc1O	45	13
O=C(O)c1ccc(/C=C2\SC(=S)N(c3cccc(C(=O)O)c3)C2=O)cc1	> 200	> 200
O=C(O)c1ccc(N2C(=O)/C(=C/c3ccccc3)SC2=S)cc1	> 200	18
O=C(O)c1cccc(N2C(=O)/C(=C/c3ccc(O)cc3)SC2=S)c1	> 200	157
O=C(O)c1ccc(N2C(=O)/C(=C/c3ccc(F)cc3)SC2=S)cc1	–	4.2
O=C(O)c1cc(N2C(=O)/C(=C/c3ccccc3)SC2=S)ccc1O	130	13
CN1C(=S)N(c2ccc(C(=O)O)cc2)C(=O)/C1=C/c1ccc(F)cc1	–	> 200
CC/C=C1\SC(=S)N(c2cccc(C(=O)O)c2)C1=O	> 200	59
O=C(O)c1cccc(N2C(=O)/C(=C/C3CCCCC3)SC2=S)c1	> 200	7.3
O=C(O)Cc1ccc(N2C(=O)/C(=C/c3ccccc3)SC2=S)cc1	100	20
O=C1/C(=C/c2ccccc2)SC(=S)N1c1ccccc1	–	> 200
COC(=O)c1ccc(N2C(=O)/C(=C/c3ccccc3)SC2=S)cc1	–	> 200
O=C(O)c1ccc(CN2C(=O)/C(=C/c3ccccc3)SC2=S)cc1	> 200	60
O=C(O)c1cccc(N2C(=O)/C(=C/c3ccc(F)cc3)SC2=S)c1	> 50	1.3
O=C(O)c1cccc(N2C(=O)/C(=C/c3ccc([N+](=O)[O-])cc3)SC2=S)c1	> 50	2.6
O=C(O)c1cccc(N2C(=O)/C(=C/c3ccccc3)SC2=S)c1 (stereo in doubt; 5m)	> 100	6.6
O=C(O)c1cccc(N2C(=O)/C(=C/c3ccccc3)SC2=S)c1 (stereo in doubt; 5t)	> 100	7
